Patent US8143238B2, “Methods of increasing epidermal skin thickness by topical administration of a 19-nor containing vitamin D compound” (Wisconsin Alumni Research Foundation, priority 2008, dated 2012)

Assays:
Rhino mice = experiment: Epidermal thickness of Rhino mice after 3 weeks of daily topical administration (histological analysis); assay type: in vivo, mouse; conditions: for API-Treated Epidermal Thickness (% Vehicle): 70% ethanol/30% propylene glycol, mean ± SEM
Method: Methods. Animals and dose administration. Rhino mice 6-8 weeks old were dosed daily via the topical route. The mice were weighed three times per week. Doses of API were adjusted weekly based on body weight. The topical formulations dosage forms were made by mixing the API with two different topical carriers. One topical carrier consisted of 70 vol % propylene glycol and 30 vol % ethanol. The other topical carrier consisted of 30 vol % propylene glycol and 70 vol % ethanol. The topical vehicle control for a given comparative example was the vehicle carrier used in the API-formulated topical dosage form. Animals were euthanized 72 hours after administration of the final topical dose, and dorsal skin was collected for histological analysis.
Measurement of epidermal thickness.
Epidermal thickness was determined by histological analysis of tissue sections. Skin was fixed overnight in 4% paraformaldehyde at 4° C. with gentle agitation. The skin was dehydrated the following day in 100% methanol. Samples were embedded in paraffin. Nine sections, each measuring 10 μm and each separated by 150 μm, were taken from each mouse and stained with hematoxylin and eosin stain. Five of the nine sections were digitally imaged (6× magnification) for analysis of the epidermal thickness using Metamorph Imaging Software (single line function).
The thickness of the epidermis adjacent to each comedone (open or healed) on each respective image of the five sections was also then measured using a Wacom Intuos 3 Graphics Tablet interfaced with the software. The average width was determined for each Rhino mouse from multiple measurements. Individual epidermal thickness average was determined from a composite of measurements taken from all 5 images. Such average for each mouse was used to calculate the treatment group mean. Results in the figures are expressed in terms of mean±standard error of the mean.
Preparation of topical formulations and dosage forms containing the various API's including 2MBis P, CAGE-3, 24R-2MD2, VitIII (17-20E), NEL, VD-03, 2MPregna, 2MP, 20R-2MBisP, 2MTrisP, FF-44, FF-55, HPBS and 13Me2. Separate concentrated ethanolic stock solutions of each API were diluted to a predetermined dose concentration using a topical carrier vehicle. Two different carrier vehicles were used. One topical carrier consisted of 70 vol % propylene glycol and 30 vol % ethanol. The other topical carrier consisted of 30 vol % propylene glycol and 70 vol % ethanol. The vehicle was thoroughly mixed with the API. The topical dosing formulation and dosage form delivered a predetermined amount of API on a per kilogram body weight basis.
A 100 μL dose was administered to the back of the mouse. An average weight of 24-30 g/mouse was assumed initially in the dose volume calculations. Dosing volumes were adjusted weekly to deliver the predetermined desired dose amount of API based on the body weight of each animal.

hairless C3H mouse = conditions: topical administration to skin of hairless C3H mouse; cited from earlier work
keratinocytes in culture = conditions: cited from earlier work
[1] = 217 nmole/kgBW/day topical, 3 weeks, 70 vol. % ethanol/30 vol. % propylene glycol
[2] = topical API dose 217 nmol/kg daily, 3 weeks
[3] = 694 nmole/kgBW/day topical, 3 weeks, 70 vol. % ethanol/30 vol. % propylene glycol
[4] = topical API dose 694 nmol/kg daily, 3 weeks

C=C1[C@H](O)CC(=C/C=C2\CCC[C@]3(C)[C@@H]([C@@H](C)CCC)CC[C@@H]23)C[C@H]1O [2MTrisP, 2-methylene-(20S)-19-nor-1α-hydroxy-trishomopregnacalciferol]
epidermal thickness as compared to the vehicle control (in words) (Rhino mice; [1]): significant increase in epidermal thickness
API-Treated Epidermal Thickness (% Vehicle) (Rhino mice; [2]): 221 ± 15 % Vehicle

C=C1C(O)CC(=CC=C2CCCC3(C)C2CCC3C(C)C)CC1O (stereo not drawn) [2MP, 1α-hydroxy-2-methylene-19-nor-homopregnacalciferol]
epidermal thickness as compared to the vehicle control (in words) (Rhino mice; [1]): significant increase in epidermal thickness
API-Treated Epidermal Thickness (% Vehicle) (Rhino mice; [2]): 207 ± 8 % Vehicle

C=C1/C(=C\C=C2/CCC[C@]3(C)[C@@H]([C@H](C)CCCC(C)(C)O)CC[C@@H]23)C[C@@H](O)C[C@@H]1O [1,25(OH)2D3, 1α,25-dihydroxy-vitamin D3]
epidermal thickness as compared to the vehicle-only control (in words) (Rhino mice; 6 nmole/kgBW daily topical, 3 weeks, 70 vol. % ethanol/30 vol. % propylene glycol): very modest increase in epidermal thickness
API-Treated Epidermal Thickness (% Vehicle) (Rhino mice; topical API dose 6.0 nmol/kg daily, 3 weeks): 118 ± 7 % Vehicle
epidermal proliferation (hairless C3H mouse): induce epidermal proliferation
epidermal thickness (hairless C3H mouse): increase epidermal thickness
proliferation of keratinocytes (keratinocytes in culture): inhibit the proliferation

C=C1[C@H](O)CC(=C/C=C2\CCC[C@]3(C)[C@@H]([C@H](C)CCC[C@H](C)O)CC[C@@H]23)C[C@H]1O [NEL, 2-methylene-(20R,25S)-19,26-dinor-1α,25-dihydroxyvitamin D3]
epidermal thickness, dose dependence (in words) (Rhino mice; 7.5 and 25 nmole/kgBW/day topical, 3 weeks, 70 vol. % ethanol/30 vol. % propylene glycol): dose-dependent increase in epidermal thickness
API-Treated Epidermal Thickness (% Vehicle) (Rhino mice; topical API dose 7.5 nmol/kg daily, 3 weeks): 145 ± 4 % Vehicle
API-Treated Epidermal Thickness (% Vehicle) (Rhino mice; topical API dose 25 nmol/kg daily, 3 weeks): 189 ± 11 % Vehicle

C=C1[C@H](O)CC(=C/C=C2\CCC[C@]3(C)[C@@H]([C@@H](C)CC)CC[C@@H]23)C[C@H]1O [2MBisP, 2-methylene-19-nor-20(S)-1α-hydroxy-bishomopregnacalciferol]
epidermal thickness as compared to the vehicle control (in words) (Rhino mice; [1]): significant increase in epidermal thickness
epidermal thickness as compared to the vehicle control (in words) (Rhino mice; [3]): significant increase in epidermal thickness
potency at increasing epidermal thickness relative to 20R-2MBisP (Rhino mice; doses of 217 and 694 nmole/kgBW/day topical, 3 weeks): approximately one-half log more potent
API-Treated Epidermal Thickness (% Vehicle) (Rhino mice; [2]): 220 ± 8 % Vehicle
API-Treated Epidermal Thickness (% Vehicle) (Rhino mice; [4]): 231 ± 6 % Vehicle

C=C1[C@H](O)CC(=C/C=C/CC(C)(C)C[C@@H](C)CCCC(C)(C)O)C[C@H]1O [13Me2, 13,13-dimethyl-des-C,D analog of (20S)-2-methylene-1α,25-dihydroxy-19-nor-vitamin D3]
epidermal thickness as compared to the vehicle control (in words) (Rhino mice; [1]): significant increase in epidermal thickness
API-Treated Epidermal Thickness (% Vehicle) (Rhino mice; [2]): 229 ± 12 % Vehicle

C=C1[C@H](O)CC(=C/C=C2\CCC[C@@]3(C)C2CCC3[C@H](C)CC(F)F)C[C@H]1O (stereo partly drawn) [FF-44, 2-methylene-(20R)-23,23-difluoro-1α-hydroxy-19-nor-bishomopregnacalciferol]
epidermal thickness as compared to the vehicle control (in words) (Rhino mice; [1]): significant increase in epidermal thickness
API-Treated Epidermal Thickness (% Vehicle) (Rhino mice; [2]): 206 ± 22 % Vehicle

C=C1[C@H](O)CC(=C/C=C2\CCC[C@]3(C)/C(=C(\C)CCCC(C)(C)O)CC[C@@H]23)C[C@H]1O [Vit-III 17-20E, 2-methylene-1α,25-dihydroxy-(17E)-17(20)-dehydro-19-nor-vitamin D3]
epidermal thickness as compared to the vehicle control (in words) (Rhino mice; 24.1 nmole/kgBW/day topical, 3 weeks, 70 vol. % ethanol/30 vol. % propylene glycol): significant increase in epidermal thickness
API-Treated Epidermal Thickness (% Vehicle) (Rhino mice; topical API dose 24 nmol/kg daily, 3 weeks): 216 ± 13 % Vehicle

C=C1[C@H](O)CC(=C/C=C2\CCC[C@@]3(C)C2CCC3[C@@H](C)CC(F)F)C[C@H]1O (stereo partly drawn) [FF-55, 2-methylene-(20S)-23,23-difluoro-1α-hydroxy-19-nor-bishomopregnancalciferol]
epidermal thickness as compared to the vehicle control (in words) (Rhino mice; [1]): significant increase in epidermal thickness
API-Treated Epidermal Thickness (% Vehicle) (Rhino mice; [2]): 225 ± 9 % Vehicle

C=C1[C@H](O)CC(=C/C=C2\CCC[C@]3(C)C(CC)CCC23)C[C@H]1O (stereo partly drawn) [2MPregna, 2-methylene-19-nor-1α-hydroxy-pregnacalciferol]
epidermal thickness as compared to the vehicle control (in words) (Rhino mice; [1]): significant increase in epidermal thickness
API-Treated Epidermal Thickness (% Vehicle) (Rhino mice; [2]): 183 ± 8 % Vehicle

C=C1[C@H](O)CC(=C/C=C2\CCC[C@]3(C)[C@@H]([C@@H](C)CCCC4(O)CCCC4)CC[C@@H]23)C[C@H]1O [CAGE-3, 19-nor-26,27-dimethylene-20(S)-2-methylene-1α,25-dihydroxyvitamin D3]
epidermal thickness as compared to the vehicle control (in words) (Rhino mice; 0.9 ng/day (ca. 100 picomole/kgBW/day), 0.45 ng/day from day 10, 0.22 ng/day (25 picomole/kgBW/day) from day 19, vehicle 30 vol. % ethanol/70 vol. % propylene glycol): increase in epidermal thickness
epidermal thickness compared to the vehicle control (in words) (Rhino mice; lowest dose 0.0079 nmol/kgBW daily topical, 3 weeks, 70 vol. % ethanol/30 vol. % propylene glycol): some increase in epidermal thickness
epidermal thickness as compared to the control vehicle (in words) (Rhino mice; three higher doses 0.025, 0.079 and 0.25 nmol/kgBW daily topical, 3 weeks, 70 vol. % ethanol/30 vol. % propylene glycol): significant increase in epidermal thickness
API-Treated Epidermal Thickness (% Vehicle) (Rhino mice; topical API dose 0.025 nmol/kg daily, 3 weeks): 162 ± 11 % Vehicle
API-Treated Epidermal Thickness (% Vehicle) (Rhino mice; topical API dose 0.079 nmol/kg daily, 3 weeks): 274 ± 14 % Vehicle
API-Treated Epidermal Thickness (% Vehicle) (Rhino mice; topical API dose 0.25 nmol/kg daily, 3 weeks): 293 ± 8 % Vehicle

CC(C)C[C@H](C)[C@H]1CC[C@H]2/C(=C/C=C3C[C@@H](O)C(=CCCO)[C@H](O)C3)CCC[C@]12C [HPBS, 2-(3′hydroxypropyl-1′,2′-idene)-19,23,24-trinor-(20S)-1α-hydroxyvitamin D3]
epidermal thickness as compared to the control vehicle (in words) (Rhino mice; 217 nmole/kgBW/day for 3 days (2 mice) or 10 days (4 mice), then 122 nmole/kgBW/day, 3 weeks daily topical, 70 vol. % ethanol/30 vol. % propylene glycol): significant increase in epidermal thickness
API-Treated Epidermal Thickness (% Vehicle) (Rhino mice; topical API dose 217 to 122 nmol/kg daily (dose changed on day 10), 3 weeks): 189 ± 13 % Vehicle

C=C1[C@H](O)CC(=C/C=C2\CCC[C@]3(C)[C@@H]([C@H](C)CC)CC[C@@H]23)C[C@H]1O [20R-2MBisP, (20R)-1α-hydroxy-2-methylene-19-nor-bishomopregnacalciferol]
epidermal thickness as compared to the vehicle control (in words) (Rhino mice; [1]): some increase in epidermal thickness
epidermal thickness as compared to the vehicle control (in words) (Rhino mice; [3]): significant increase in epidermal thickness
API-Treated Epidermal Thickness (% Vehicle) (Rhino mice; [2]): 155 ± 7 % Vehicle
API-Treated Epidermal Thickness (% Vehicle) (Rhino mice; [4]): 209 ± 13 % Vehicle

C=C1[C@H](O)CC(=C/C=C2\CCC[C@@H]3[C@@H]([C@@H](C)CCCC(C)(C)O)CC[C@@H]23)C[C@H]1O [VD-03, 2-methylene-18,19-dinor-(20S)-1α,25-dihydroxyvitamin D3]
API-Treated Epidermal Thickness (% Vehicle) (Rhino mice; topical API dose 0.62 nmol/kg daily, 3 weeks): 225 ± 6 % Vehicle

C=C1[C@H](O)CC(=C/C=C2\CCC[C@]3(C)C([C@H](C)/C=C/[C@@H](C)C(C)(C)O)CC[C@@H]23)C[C@H]1O (stereo partly drawn) [(24R)2MD2, 2-methylene-19-nor-(24R)-1α,25-dihydroxyvitamin D2]
epidermal thickness as compared to the vehicle control (in words) (Rhino mice; 2.33 nmole/kgBW/day topical, 3 weeks, 70 vol. % ethanol/30 vol. % propylene glycol): significant increase in epidermal thickness
API-Treated Epidermal Thickness (% Vehicle) (Rhino mice; topical API dose 2.3 nmol/kg daily, 3 weeks): 189 ± 13 % Vehicle
